Among the data in PubChem BioAssay AID248 (DTP/NCI, 2004) are T/C values, retold here.

For this experiment, the system named is L1210 leukemia ip in BDF1 mice, survival T/C. Description: NCI In Vivo Anticancer Drug Screen. Data for tumor model L1210 Leukemia (intraperitoneal) in B6D2F1 (BDF1) mice. Particulars: endpoint: mean survival time, higher = longer survival. In a few lines:
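Survival endpoint. Drug-treated group vs vehicle group, expressed as T divided by C. Tumor passaged by transplantation.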

Setting [1] is: dose: 100.0 mg/kg/injection, schedule: Q01DX009 (ip), vehicle: Klucel (hydroxypropylcellulose) (HPC).
Setting [2] is: dose: 100.0 mg/kg/injection, schedule: Q04DX003 (ip), vehicle: Klucel (hydroxypropylcellulose) (HPC).
[3] abbreviates: dose: 200.0 mg/kg/injection, schedule: Q04DX003 (ip), vehicle: Klucel (hydroxypropylcellulose) (HPC).
The mark [4] stands for this setting: dose: 400.0 mg/kg/injection, schedule: Q04DX003 (ip), vehicle: Klucel (hydroxypropylcellulose) (HPC).
Setting [5] is: dose: 12.5 mg/kg/injection, schedule: Q04DX002 (ip), vehicle: Klucel (hydroxypropylcellulose) (HPC).
The mark [6] stands for this setting: dose: 25.0 mg/kg/injection, schedule: Q04DX002 (ip), vehicle: Klucel (hydroxypropylcellulose) (HPC).
Where [7] appears, read: dose: 200.0 mg/kg/injection, schedule: Q04DX002 (ip), vehicle: Klucel (hydroxypropylcellulose) (HPC).
The mark [8] stands for this setting: dose: 100.0 mg/kg/injection, schedule: Q01DX001 (ip), vehicle: carboxymethylcellulose (CMC).
Setting [9] is: dose: 200.0 mg/kg/injection, schedule: Q01DX001 (ip), vehicle: carboxymethylcellulose (CMC).
[10] abbreviates: dose: 400.0 mg/kg/injection, schedule: Q01DX001 (ip), vehicle: carboxymethylcellulose (CMC).
The mark [11] stands for this setting: dose: 50.0 mg/kg/injection, schedule: Q01DX009 (ip), vehicle: saline.
Setting [12] is: dose: 100.0 mg/kg/injection, schedule: Q01DX009 (ip), vehicle: saline.
Setting [13] is: dose: 200.0 mg/kg/injection, schedule: Q01DX009 (ip), vehicle: saline.
Where [14] appears, read: dose: 400.0 mg/kg/injection, schedule: Q01DX009 (ip), vehicle: saline.
Where [15] appears, read: dose: 100.0 mg/kg/injection, schedule: Q04DX003 (ip), vehicle: saline.
Where [16] appears, read: dose: 200.0 mg/kg/injection, schedule: Q04DX003 (ip), vehicle: saline.

Values joined by “and” are separate entries in the source; they are usually repeats but may differ in a detail not shown here. Identical values can stand only once. Inconclusive results and toxic doses are left out.

`Cc1ccc([N+](=O)[O-])c(O)c1[N+](=O)[O-]`: the T/C is, setting by setting: under setting [1], 104 % of control; under setting [2], 102 % of control; (dose: 200.0 mg/kg/injection, schedule: Q01DX009 (ip), vehicle: Klucel (hydroxypropylcellulose) (HPC)) 93 % of control; under setting [3], 89 % of control; under setting [4], 102 % of control.

As to `CN=C(NC)c1ccc(NC(=O)CCc2ccc(C(=O)Nc3ccc(C(=NC)NC)cc3)cc2)cc1`, the T/C (dose: 0.75 mg/kg/injection, schedule: Q01DX Z (ip), vehicle: carboxymethylcellulose (CMC)) was 94 % of control; the T/C (dose: 1.5 mg/kg/injection, schedule: Q01DX Z (ip), vehicle: carboxymethylcellulose (CMC)) was 90 % of control; the T/C (dose: 3.0 mg/kg/injection, schedule: Q01DX Z (ip), vehicle: carboxymethylcellulose (CMC)) is 93 % of control; the T/C (dose: 6.0 mg/kg/injection, schedule: Q01DX Z (ip), vehicle: carboxymethylcellulose (CMC)) was 113 % of control; the T/C (dose: 10.5 mg/kg/injection, schedule: Q01DX Z (ip), vehicle: carboxymethylcellulose (CMC)) is 168 % of control; the T/C (dose: 50.0 mg/kg/injection, schedule: Q01DX Z (oral), vehicle: carboxymethylcellulose (CMC)) is 101 % of control. In addition, the T/C is, setting by setting: (dose: 100.0 mg/kg/injection, schedule: Q01DX Z (oral), vehicle: carboxymethylcellulose (CMC)) 105 % of control; (dose: 200.0 mg/kg/injection, schedule: Q01DX Z (oral), vehicle: carboxymethylcellulose (CMC)) 103 % of control; (dose: 400.0 mg/kg/injection, schedule: Q01DX Z (oral), vehicle: carboxymethylcellulose (CMC)) 94 % of control.

`COc1cc2c(cc1O)CCN(C)C2Cc1ccc(OC)c(OC)c1` (configuration not stated): the T/C (dose: 75.0 mg/kg/injection, schedule: Q01DX001 (ip), vehicle: carboxymethylcellulose (CMC)) was 95 % of control and the T/C (dose: 150.0 mg/kg/injection, schedule: Q01DX001 (ip), vehicle: carboxymethylcellulose (CMC)) was 94 % of control.

Regarding `O=C(Oc1c(Cl)c(Cl)c(Cl)c(Cl)c1Cl)c1cc(Cl)cc(Cl)c1Br`, the T/C by setting is: (dose: 25.0 mg/kg/injection, schedule: Q04DX003 (ip), vehicle: saline with Tween-80) 105 % of control; (dose: 50.0 mg/kg/injection, schedule: Q04DX003 (ip), vehicle: saline with Tween-80) 102 % of control; (dose: 100.0 mg/kg/injection, schedule: Q04DX003 (ip), vehicle: saline with Tween-80) 97 % of control and 91 % of control.

`COC(=O)C1(C)CCCC2(C)C3CCC4(C)CC3(CCC12)CC4S(=O)(=O)c1ccc(C)cc1` (configuration not stated): the T/C reads like this: under setting [5], 100 % of control; under setting [6], 89 % of control; (dose: 50.0 mg/kg/injection, schedule: Q04DX002 (ip), vehicle: Klucel (hydroxypropylcellulose) (HPC)) 95 % of control and 106 % of control; under setting [7], 86 % of control.

For the compound `Nc1cc(Cl)cc2c1-c1ccc(Cl)cc1/C2=N\O`, the T/C by setting is: under setting [8], 100 % of control; under setting [9], 97 % of control; under setting [10], 97 % of control.

For the compound `CC(C)=C1C2CCC1C1C(=O)OC(=O)C21` (configuration not stated), the T/C is 95 % of control (dose: 50.0 mg/kg/injection, schedule: Q01DX009 (ip), vehicle: Klucel (hydroxypropylcellulose) (HPC)); 102 % of control (dose: 50.0 mg/kg/injection, schedule: Q04DX003 (ip), vehicle: Klucel (hydroxypropylcellulose) (HPC)); 98 % of control (dose: 100.0 mg/kg/injection, schedule: Q01DX001 (ip), vehicle: Klucel (hydroxypropylcellulose) (HPC)); 88 % of control under setting [1]; 102 % of control under setting [2]; 105 % of control (dose: 200.0 mg/kg/injection, schedule: Q01DX001 (ip), vehicle: Klucel (hydroxypropylcellulose) (HPC)). Also, the T/C under setting [3] was 100 % of control.

For the compound `COc1ccc2cc1Oc1ccc(cc1)CC1c3cc(c(OC)cc3CCN1C)Oc1c(OC)c(OC)c(OC)c3c1C(C2)N(C)CC3` (configuration not stated), the T/C reads like this: (dose: 100.0 mg/kg/injection, schedule: Q04DX002 (ip), vehicle: Klucel (hydroxypropylcellulose) (HPC)) 102 % of control; under setting [7], 91 % of control; (dose: 400.0 mg/kg/injection, schedule: Q04DX002 (ip), vehicle: Klucel (hydroxypropylcellulose) (HPC)) 94 % of control.

`C=NN=C(NN=C)NN=C`: the T/C reads like this: (dose: 15.0 mg/kg/injection, schedule: Q01DX Z (ip), vehicle: methylcellulose (MC)) 105 % of control; (dose: 30.0 mg/kg/injection, schedule: Q01DX Z (ip), vehicle: methylcellulose (MC)) 114 % of control; (dose: 60.0 mg/kg/injection, schedule: Q01DX Z (ip), vehicle: methylcellulose (MC)) 97 % of control; (dose: 120.0 mg/kg/injection, schedule: Q01DX Z (ip), vehicle: methylcellulose (MC)) 104 % of control; (dose: 120.0 mg/kg/injection, schedule: Q01DX Z (oral), vehicle: methylcellulose (MC)) 104 % of control; (dose: 480.0 mg/kg/injection, schedule: Q01DX Z (oral), vehicle: methylcellulose (MC)) 93 % of control.

Take `N#CC(c1ccc(Cl)cc1)c1ccccn1` (configuration not stated): the T/C reads like this: (dose: 75.0 mg/kg/injection, schedule: Q04DX003 (ip), vehicle: other) 96 % of control; (dose: 150.0 mg/kg/injection, schedule: Q04DX003 (ip), vehicle: other) 96 % of control; (dose: 300.0 mg/kg/injection, schedule: Q04DX003 (ip), vehicle: other) 94 % of control.

On to `O=C1NC(=O)C(Cc2ccccc2)(Cc2ccccc2)C(=O)N1`, for which the T/C runs as follows: under setting [8], 103 % of control; under setting [9], 95 % of control; under setting [10], 95 % of control.

Take `Nc1c(Br)cc2c(c1Br)C(=O)c1cc(Br)ccc1-2`: the T/C by setting is: under setting [8], 92 % of control; under setting [9], 94 % of control; under setting [10], 97 % of control.

On to `NC(CSS(=O)(=O)O)=NCC12CC3CC(CC(C3)C1)C2`, for which the T/C under setting [5] was 104 % of control and the T/C under setting [6] is 95 % of control.

For the compound `CCOC(=O)c1ccc(N=Cc2cc(Cl)cc(Cl)c2O)cc1`, the T/C was 95 % of control (dose: 100.0 mg/kg/injection, schedule: Q01DX001 (ip), vehicle: saline); 100 % of control (dose: 200.0 mg/kg/injection, schedule: Q01DX001 (ip), vehicle: saline); 93 % of control (dose: 400.0 mg/kg/injection, schedule: Q01DX001 (ip), vehicle: saline).

In the case of `COc1ccc(NN=Nc2ccccc2C#N)cc1`, the T/C by setting is: under setting [2], 106 % of control; under setting [3], 100 % of control; under setting [4], 108 % of control.

With `O=C(O)C(Cc1ccc(O)cc1)NC(=O)C(CSC(c1ccccc1)(c1ccccc1)c1ccccc1)NC(c1ccccc1)(c1ccccc1)c1ccccc1` (configuration not stated), the T/C by setting is: under setting [11], 92 % of control; under setting [12], 95 % of control; under setting [13], 100 % of control; under setting [14], 95 % of control.

`COC(C)C(Br)C(=O)O` (configuration not stated): the T/C was 98 % of control under setting [11]; 95 % of control under setting [12]; 88 % of control under setting [15]; 90 % of control under setting [13]; 90 % of control under setting [16].

Take `N#Cc1cn[nH]c1N`: the T/C is 98 % of control (dose: 100.0 mg/kg/injection, schedule: Q01DX001 (ip), vehicle: saline with Tween-80); 95 % of control (dose: 200.0 mg/kg/injection, schedule: Q01DX001 (ip), vehicle: saline with Tween-80); 103 % of control (dose: 400.0 mg/kg/injection, schedule: Q01DX001 (ip), vehicle: saline with Tween-80).

For the compound `CCCCCCCCCC(=O)CCC`, the T/C is 100 % of control under setting [12]; 111 % of control under setting [15]; 96 % of control under setting [13]; 97 % of control under setting [16]; 98 % of control under setting [14]; 105 % of control (dose: 400.0 mg/kg/injection, schedule: Q04DX003 (ip), vehicle: saline).
